In patent publication US6821980B1, “Substituted 5-benzyl-2,4-diaminopyrimidines” (Basilea Pharmaceutica AG, priority 1999, dated 2004) one finds MIC and IC50 data, which are given here for eleven compounds.

The subject of test [1] is Streptococcus pneumoniae 1/1. In words: MIC against Streptococcus pneumoniae 1/1. In kind it is cell-based.
The subject of test [2] is Staphylococcus aureus 101. Nature of the test: MIC against Staphylococcus aureus 101. The format is cell-based. To be noted: read-out: MIC Sa101.
The target in test [3] is T1, purified DHFR of strain Sp1/1 of Streptococcus pneumoniae (Streptococcus pneumoniae serotype 4, UniProt Q54801).
T1 sequence (Q54801 1-168 I100L): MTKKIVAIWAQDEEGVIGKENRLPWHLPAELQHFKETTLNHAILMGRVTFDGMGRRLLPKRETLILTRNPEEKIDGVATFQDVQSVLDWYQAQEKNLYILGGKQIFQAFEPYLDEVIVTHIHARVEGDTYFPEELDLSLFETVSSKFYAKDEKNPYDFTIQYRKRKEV
The format is biochemical. To be noted: Table 2; IC50 against purified DHFR of strain Sp1/1.

Test [4] has as its target purified DHFR of strain 157/4696 of Staphylococcus aureus (Staphylococcus aureus, UniProt P13955). In words: biochemical.
Setting [5] is: Table 2, Streptococcus pneumoniae 1/1, trimethoprim- and penicillin-resistant, serotype 6, clinical isolate, read-out: MIC Sp1/1.
Setting [6] is: Table 2, Staphylococcus aureus 101, MRSA- and trimethoprim-resistant, clinical isolate.

≈ marks a conversion by molar mass, not a printed value. Read-outs that look alike come from different tables or passages of the source.

purified DHFR of strain 157/4696 of Staphylococcus aureus, sequence (P13955 whole entry): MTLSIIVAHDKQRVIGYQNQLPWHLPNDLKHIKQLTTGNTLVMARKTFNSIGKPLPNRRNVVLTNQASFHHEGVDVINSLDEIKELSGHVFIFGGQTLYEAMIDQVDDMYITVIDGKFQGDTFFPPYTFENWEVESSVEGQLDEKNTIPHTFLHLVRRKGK

Broadly, the IC50 is the concentration at which inhibition is half-maximal. Turning to `CCOc1cc(Cc2cnc(N)nc2N)cc(OCC)c1-c1ccc2c(c1)NCCO2` [Example 02-h, 5-[4-(3,4-Dihydro-2H-benzo[1.4]oxazin-6-yl)-3,5-diethoxy-benzyl]-pyrimidine-2,4-diamine], the MIC in test [1] (setting [5]) was found to be 4 µg/mL (≈ 9.49 µM); in test [2] (setting [6]), 8 µg/mL (≈ 19 µM). The IC50 in test [3] is 38 nM; in test [4] it was 1200 nM.
For `CCOc1cc(Cc2cnc(N)nc2N)cc(OCC)c1-c1ccc(S(C)(=O)=O)cc1` [Example 02-i, 5-(2,6-Diethoxy-4′-methanesulphonyl-biphenyl-4-ylmethyl)-pyrimidine-2,4-diamine], the figures for the MIC in test [1] (setting [5]) and in test [2] (setting [6]) were 2 µg/mL (≈ 4.52 µM) and 8 µg/mL (≈ 18.1 µM), respectively. Further, the IC50 in test [3] was 100 nM; in test [4] it was 1600 nM.
With `CCOc1cc(Cc2cnc(N)nc2N)cc(OCC)c1-c1ccc(OC)c(OC)c1` [Example 02-l, 5-(2,6-Diethoxy-3′,4′-dimethoxy-biphenyl-4-ylmethy)-pyrimidine-2,4-diamine], the MIC in test [1] (setting [5]) came out at 4 µg/mL (≈ 9.42 µM); in test [2] (setting [6]) it was 8 µg/mL (≈ 18.8 µM). Besides, the IC50 in test [3] was 160 nM; in test [4] it was 8000 nM.
On to `CCOc1cc(Cc2cnc(N)nc2N)cc(OCC)c1-c1cccs1` [Example 02-m, 5-(3,5-Diethoxy-4-thiophen-2-yl-benzyl)-pyrimidine-2,4-diamine], for which the MIC in test [1] (setting [5]) was found to be 4 µg/mL (≈ 10.8 µM); in test [2] (setting [6]) it was 8 µg/mL (≈ 21.6 µM). The concentration for half-maximal inhibition (IC50) in test [3] is 58 nM; in test [4], 700 nM.
`CCOc1cc(Cc2cnc(N)nc2N)cc(OCC)c1-c1ccc(OC)c(C)c1` [Example 02-n, 5-(2,6-Diethoxy-4′-methoxy-3′-metyl-biphenyl-4-ylmethyl)-pyrimidine-2,4-diamine]: the values for the MIC in test [1] (setting [5]) and in test [2] (setting [6]) were 4 µg/mL (≈ 9.79 µM) and 8 µg/mL (≈ 19.6 µM), respectively. Besides, the IC50 in test [3] was determined as 110 nM; in test [4], 1400 nM.
Regarding `CCOc1cc(Cc2cnc(N)nc2N)cc(OCC)c1-c1ccco1` [Example 02-o, 5-(3,5-Diethoxy-4-furan-2-yl-benzyl)-pyrimidine-2,4-diamine], the MIC in test [1] (setting [5]) and in test [2] (setting [6]) was 4 µg/mL (≈ 11.3 µM) each time. The IC50 in test [3] was 100 nM; in test [4], 2200 nM.
In the case of `CCOc1cc(Cc2cnc(N)nc2N)cc(OCC)c1-c1cccnc1` [Example 02-p, 5-(3,5-Diethoxy-4-pyridin-3-yl-benzyl)-pyrimidine-2,4-diamine], the MIC amounted to 4 µg/mL (≈ 10.9 µM) in test [1] (setting [5]) and 8 µg/mL (≈ 21.9 µM) in test [2] (setting [6]). In addition, the IC50 in test [3] was found to be 100 nM; in test [4] it was 2200 nM.
For `CCOc1cc(Cc2cnc(N)nc2N)cc(OCC)c1-c1ccc(C)cc1` [Example 02-q, 5-(2,6-Diethoxy-4′-methyl-biphenyl-4-ylmethyl)-pyrimidine-2,4-diamine], the MIC in test [1] (setting [5]) came to 8 µg/mL (≈ 21.1 µM); in test [2] (setting [6]), 4 µg/mL (≈ 10.6 µM). Also, the IC50 in test [3] was determined as 79 nM; in test [4], 1100 nM.
As to `CCOc1cc(Cc2cnc(N)nc2N)cc(OCC)c1-c1ccc2c(c1)OCO2` [Example 02-r, 5-(4-Benzo[1,3]dioxol-5-yl-3,5-diethoxy-benzyl)-pyrimidine-2,4-diamine], the MIC in test [1] (setting [5]) and in test [2] (setting [6]) was 4 µg/mL (≈ 9.79 µM) each time. In addition, the IC50 came to 70 nM in test [3] and 2500 nM in test [4].
Regarding `CCOc1cc(Cc2cnc(N)nc2N)cc(OCC)c1-c1ccc(O)c(C)c1` [Example 02-s, 4′-(2,4-Diamino-pyrimidin-5-ylmethyl)-2′,6′-diethoxy-3-methyl-biphenyl-4-ol], the MIC in test [1] (setting [5]) stood at 8 µg/mL (≈ 20.3 µM); in test [2] (setting [6]), 4 µg/mL (≈ 10.1 µM). In addition, the IC50 in test [3] worked out at 83 nM; in test [4] it was 2200 nM.
Take `CCOc1cc(Cc2cnc(N)nc2N)cc(OCC)c1-c1ccc(O)cc1` [Example 02-t, 4′-(2,4-Diamino-pyrimidin-5-ylmethyl)-2′,6′-diethoxy-biphenyl-4-ol]: the MIC is 4 µg/mL (≈ 10.5 µM) in test [1] (Streptococcus pneumoniae, 1/1, read-out: MIC Sp1/1) and 8 µg/mL (≈ 21 µM) in test [2] (Staphylococcus aureus, MRSA). The values for the IC50 in test [3] and in test [4] were 81 nM and 1100 nM, respectively.
